These are literature values, as cited in publication PMC8583936, “Machine Learning Assisted Approach for Finding Novel High Activity Agonists of Human Ectopic Olfactory Receptors” (International Journal of Molecular Sciences, 2021).

Structures can show the parent of a compound that is named as a salt. Where two headings read alike, the source gives them in different places.

For one series, the target named is T1, OR2W1 (Homo sapiens, UniProt Q9Y3N9).
T1 sequence (Q9Y3N9 1-320): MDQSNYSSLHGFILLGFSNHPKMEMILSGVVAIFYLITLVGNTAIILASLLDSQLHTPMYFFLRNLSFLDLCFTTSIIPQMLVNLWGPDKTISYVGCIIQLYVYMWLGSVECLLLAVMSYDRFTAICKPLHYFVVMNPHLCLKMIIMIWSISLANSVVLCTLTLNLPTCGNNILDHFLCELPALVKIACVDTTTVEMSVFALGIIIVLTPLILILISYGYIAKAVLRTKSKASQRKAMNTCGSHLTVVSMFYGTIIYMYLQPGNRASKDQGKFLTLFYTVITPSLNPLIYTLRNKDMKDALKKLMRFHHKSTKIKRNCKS
As to conditions: cited from earlier work.

For a further series, the target named is T2, OR1A1 (Homo sapiens, UniProt Q9P1Q5).
T2 sequence (Q9P1Q5 1-309): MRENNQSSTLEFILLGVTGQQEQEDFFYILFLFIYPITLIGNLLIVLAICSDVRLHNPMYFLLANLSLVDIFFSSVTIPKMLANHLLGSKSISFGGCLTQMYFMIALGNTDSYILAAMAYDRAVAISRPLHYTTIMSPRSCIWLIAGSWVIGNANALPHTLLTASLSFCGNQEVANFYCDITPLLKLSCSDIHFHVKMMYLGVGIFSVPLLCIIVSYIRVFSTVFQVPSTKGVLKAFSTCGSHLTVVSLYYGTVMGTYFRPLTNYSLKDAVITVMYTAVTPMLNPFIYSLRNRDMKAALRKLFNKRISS
As to conditions: cited from earlier work.

[1] abbreviates: Table S2, ref Supplement references [2]-[12] as printed after each odorant name.
Setting [2] is: Table S1, ref Supplement references [1]-[9] as printed after each odorant name.

As to `C=C(C)[C@H]1CC=C(C)C(=O)C1` [(+)-Carvone], at OR2W1 (setting [1]), the “Class (agonist / non-agonist / antagonist / conflicting info.) for OR2W1” value was “Agonist”. Moreover, the “Class (agonist / non-agonist / conflicting info.) for OR1A1” value on OR1A1 (setting [2]) is given as “Agonist”.

As for `CCC=O` [Propanal], the “Class (agonist / non-agonist / antagonist / conflicting info.) for OR2W1” value at OR2W1 (setting [1]) is on record as “Conflicting info”. Besides, the “Class (agonist / non-agonist / conflicting info.) for OR1A1” value on OR1A1 (setting [2]) is listed as “Conflicting info”.

Consider Ethyl 3-methylthiopropionate, for which, at OR2W1 (setting [1]), the “Class (agonist / non-agonist / antagonist / conflicting info.) for OR2W1” value is reported as “Non-agonist”. The “Class (agonist / non-agonist / conflicting info.) for OR1A1” value on OR1A1 (setting [2]) is given as “Non-agonist”.

As to (+)-beta-Pinene, on OR2W1 (setting [1]), the “Class (agonist / non-agonist / antagonist / conflicting info.) for OR2W1” value was “Non-agonist”. Besides, the “Class (agonist / non-agonist / conflicting info.) for OR1A1” value on OR1A1 (setting [2]) is “Non-agonist”.

For the compound `CCOC(=O)C1CCCCC1` [Ethyl cyclohexanecarboxylate], the “Class (agonist / non-agonist / antagonist / conflicting info.) for OR2W1” value at OR2W1 (setting [1]) is listed as “Agonist”. Also, the “Class (agonist / non-agonist / conflicting info.) for OR1A1” value at OR1A1 (setting [2]) is recorded as “Agonist”.

With `CCCCCO` [Pentanol], on OR2W1 (setting [1]), the “Class (agonist / non-agonist / antagonist / conflicting info.) for OR2W1” value is “Conflicting info”. For the same compound, the “Class (agonist / non-agonist / conflicting info.) for OR1A1” value at OR1A1 (setting [2]) is on record as “Conflicting info”.

For the compound `COc1cc(C=O)ccc1O` [Vanillin], the “Class (agonist / non-agonist / antagonist / conflicting info.) for OR2W1” value at OR2W1 (setting [1]) is on record as “Conflicting info”. For the same compound, the “Class (agonist / non-agonist / conflicting info.) for OR1A1” value on OR1A1 (setting [2]) is reported as “Non-agonist”.

In the case of Isoeugenol, the “Class (agonist / non-agonist / antagonist / conflicting info.) for OR2W1” value on OR2W1 is reported as “Non-agonist”. Further, at OR1A1, the “Class (agonist / non-agonist / conflicting info.) for OR1A1” value was “Non-agonist”.

As for `C[C@]12CCC(=O)C[C@@H]1CC[C@@H]1[C@@H]2CC[C@]2(C)C=CC[C@@H]12` [Androstenone], the “Class (agonist / non-agonist / antagonist / conflicting info.) for OR2W1” value at OR2W1 is given as “Antagonist”. On OR1A1, the “Class (agonist / non-agonist / conflicting info.) for OR1A1” value was “Conflicting info”.

As for `C=CCc1ccccc1` [Allyl benzene], the “Class (agonist / non-agonist / antagonist / conflicting info.) for OR2W1” value on OR2W1 was “Non-agonist”. Further, on OR1A1, the “Class (agonist / non-agonist / conflicting info.) for OR1A1” value is “Non-agonist”.

As for `CCCCCCCCCO` [Nonanol], on OR2W1 (setting [1]), the “Class (agonist / non-agonist / antagonist / conflicting info.) for OR2W1” value is listed as “Agonist”. The “Class (agonist / non-agonist / conflicting info.) for OR1A1” value on OR1A1 (setting [2]) is reported as “Non-agonist”.

`O=C1CCOc2ccccc21` [4-chromanone]: the “Class (agonist / non-agonist / antagonist / conflicting info.) for OR2W1” value on OR2W1 (setting [1]) is on record as “Agonist”. Moreover, the “Class (agonist / non-agonist / conflicting info.) for OR1A1” value on OR1A1 (setting [2]) is reported as “Agonist”.

With `O=C1Cc2ccccc2O1` [2-coumaranone], the “Class (agonist / non-agonist / antagonist / conflicting info.) for OR2W1” value on OR2W1 (setting [1]) is recorded as “Non-agonist”. At OR1A1 (setting [2]), the “Class (agonist / non-agonist / conflicting info.) for OR1A1” value was “Non-agonist”.

Take `CCCCOC=O` [Butyl formate]: the “Class (agonist / non-agonist / antagonist / conflicting info.) for OR2W1” value at OR2W1 (setting [1]) is listed as “Conflicting info”. Further, the “Class (agonist / non-agonist / conflicting info.) for OR1A1” value at OR1A1 (setting [2]) is recorded as “Conflicting info”.

`O=C1CCCCCCCCCCCC(=O)OCCO1` [Ethylene brassylate]: the “Class (agonist / non-agonist / antagonist / conflicting info.) for OR2W1” value at OR2W1 (setting [1]) is recorded as “Antagonist”. Besides, at OR1A1 (setting [2]), the “Class (agonist / non-agonist / conflicting info.) for OR1A1” value is “Conflicting info”.

Take `CSC` [Dimethyl sulfide]: the “Class (agonist / non-agonist / antagonist / conflicting info.) for OR2W1” value on OR2W1 (setting [1]) is given as “Non-agonist”. The “Class (agonist / non-agonist / conflicting info.) for OR1A1” value at OR1A1 (setting [2]) is reported as “Non-agonist”.

Regarding `CC1CC[C@H](C(C)C)[C@@H](O)C1` (single isomer, unassigned; (+)) [(+)-Menthol], the “Class (agonist / non-agonist / antagonist / conflicting info.) for OR2W1” value at OR2W1 (setting [1]) is recorded as “Conflicting info”. At OR1A1 (setting [2]), the “Class (agonist / non-agonist / conflicting info.) for OR1A1” value is listed as “Non-agonist”.

Take (S)-(-)-citronellol: on OR2W1, the “Class (agonist / non-agonist / antagonist / conflicting info.) for OR2W1” value is given as “Agonist”. Also, the “Class (agonist / non-agonist / conflicting info.) for OR1A1” value at OR1A1 is “Agonist”.

As to `CCOC(=O)C(C)=O` [Ethyl pyruvate], at OR2W1 (setting [1]), the “Class (agonist / non-agonist / antagonist / conflicting info.) for OR2W1” value is reported as “Non-agonist”. Besides, on OR1A1 (setting [2]), the “Class (agonist / non-agonist / conflicting info.) for OR1A1” value was “Non-agonist”.

As for `CC(=O)C1=NCCS1` [2-Acetyl-2-thiazoline], the “Class (agonist / non-agonist / antagonist / conflicting info.) for OR2W1” value on OR2W1 (setting [1]) is recorded as “Non-agonist”. Besides, the “Class (agonist / non-agonist / conflicting info.) for OR1A1” value on OR1A1 (setting [2]) is given as “Non-agonist”.

Consider `CCCCC/C=C/C=C/C=O` [E,E-2,4-decadienal], for which the “Class (agonist / non-agonist / antagonist / conflicting info.) for OR2W1” value on OR2W1 (setting [1]) is “Non-agonist”. The “Class (agonist / non-agonist / conflicting info.) for OR1A1” value on OR1A1 (setting [2]) is given as “Conflicting info”.
